According to PubChem BioAssay AID330 (DTP/NCI, 2004):
“And” between values parts separate entries of the source, which are not always exact repeats. Equal values may be shown once. Toxic doses and inconclusive results are not listed.

Tested on: P388 leukemia ip, CD2F1 mice, survival T/C
Assay: NCI In Vivo Anticancer Drug Screen. Data for tumor model P388 Leukemia (intraperitoneal) in CD2F1 (CDF1) mice
Settings: endpoint: median survival time, higher = longer survival
Outline: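 Mice carrying the transplanted tumor received test compound or vehicle. Survival was recorded in each group, and the value is the treated-group measurement divided by that of the vehicle-treated control group.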

[1] = dose: 25.0 mg/kg/injection, schedule: Q01DX009 (ip), vehicle: saline
[2] = dose: 60.0 mg/kg/injection, schedule: Q01DX005 (ip), vehicle: Klucel (hydroxypropylcellulose) (HPC)
[3] = dose: 120.0 mg/kg/injection, schedule: Q01DX005 (ip), vehicle: Klucel (hydroxypropylcellulose) (HPC)
[4] = dose: 240.0 mg/kg/injection, schedule: Q01DX005 (ip), vehicle: Klucel (hydroxypropylcellulose) (HPC)
[5] = dose: 6.25 mg/kg/injection, schedule: Q01DX005 (ip), vehicle: saline with Tween-80
[6] = dose: 12.5 mg/kg/injection, schedule: Q01DX005 (ip), vehicle: saline with Tween-80
[7] = dose: 25.0 mg/kg/injection, schedule: Q01DX005 (ip), vehicle: saline with Tween-80
[8] = dose: 50.0 mg/kg/injection, schedule: Q01DX005 (ip), vehicle: saline with Tween-80
[9] = dose: 100.0 mg/kg/injection, schedule: Q01DX005 (ip), vehicle: saline with Tween-80
[10] = dose: 50.0 mg/kg/injection, schedule: Q01DX005 (ip), vehicle: Klucel (hydroxypropylcellulose) (HPC)
[11] = dose: 100.0 mg/kg/injection, schedule: Q01DX005 (ip), vehicle: Klucel (hydroxypropylcellulose) (HPC)
[12] = dose: 200.0 mg/kg/injection, schedule: Q01DX005 (ip), vehicle: Klucel (hydroxypropylcellulose) (HPC)
[13] = dose: 200.0 mg/kg/injection, schedule: Q01DX005 (ip), vehicle: saline with Tween-80

How did the T/C (dose: 50.0 mg/kg/injection, schedule: Q01DX005 (ip), vehicle: saline) turn out when `CC(=O)OCC1OC(n2cccc(OC(C)=O)c2=O)C(OC(C)=O)C1OC(C)=O` (stereo unspecified) was run?
The T/C was 103 % of control.

What about the T/C (dose: 50.0 mg/kg/injection, schedule: Q01DX005 (ip), vehicle: suspension in saline) of the same compound?
The T/C was 99 % of control.

What about the T/C (dose: 100.0 mg/kg/injection, schedule: Q01DX005 (ip), vehicle: saline) of the same compound?
The T/C was 99 % of control.

And the T/C (dose: 100.0 mg/kg/injection, schedule: Q01DX005 (ip), vehicle: suspension in saline)?
The T/C was 99 % of control.

And the T/C (dose: 200.0 mg/kg/injection, schedule: Q01DX005 (ip), vehicle: saline)?
The T/C was 102 % of control.

What about the T/C (dose: 200.0 mg/kg/injection, schedule: Q01DX005 (ip), vehicle: suspension in saline) of the same compound?
The T/C was 113 % of control.

What about the T/C (dose: 400.0 mg/kg/injection, schedule: Q01DX005 (ip), vehicle: saline) of the same compound?
The T/C was 98 % of control.

And the T/C (dose: 400.0 mg/kg/injection, schedule: Q01DX005 (ip), vehicle: suspension in saline)?
Its T/C is 96 % of control.

With `O=C(CCN1CC1)Nc1cccc(NC(=O)CCN2CC2)c1` as the compound, how does the T/C (dose: 1.8 mg/kg/injection, schedule: Q01DX009 (ip), vehicle: Klucel (hydroxypropylcellulose) (HPC)) read?
Its T/C is 176 % of control.

What about the T/C (dose: 2.5 mg/kg/injection, schedule: Q01DX009 (ip), vehicle: Klucel (hydroxypropylcellulose) (HPC)) of the same compound?
Its T/C is 158 % of control and 169 % of control and 185 % of control.

And the T/C (dose: 3.0 mg/kg/injection, schedule: Q01DX009 (ip), vehicle: Klucel (hydroxypropylcellulose) (HPC))?
Its T/C is 174 % of control.

And the T/C (dose: 5.0 mg/kg/injection, schedule: Q01DX009 (ip), vehicle: Klucel (hydroxypropylcellulose) (HPC))?
Its T/C is 167 % of control and 191 % of control and 209 % of control.

And the T/C (dose: 6.0 mg/kg/injection, schedule: Q01DX009 (ip), vehicle: Klucel (hydroxypropylcellulose) (HPC))?
Its T/C is 186 % of control.

And the T/C (dose: 15.0 mg/kg/injection, schedule: Q01DX009 (ip), vehicle: Klucel (hydroxypropylcellulose) (HPC))?
Its T/C is 88 % of control.

And the T/C (dose: 20.0 mg/kg/injection, schedule: Q01DX009 (ip), vehicle: Klucel (hydroxypropylcellulose) (HPC))?
The T/C was 116 % of control.

What does the source list for `[N-]=[N+]=CC(=O)NCC(=O)NNC(=O)c1ccccc1`?
T/C (dose: 3.12 mg/kg/injection, schedule: Q01DX009 (ip), vehicle: saline): 92 % of control; T/C (dose: 6.25 mg/kg/injection, schedule: Q01DX009 (ip), vehicle: saline): 87 % of control; T/C (dose: 12.5 mg/kg/injection, schedule: Q01DX009 (ip), vehicle: saline): 100 % of control; T/C [1]: 87 % of control

What does the source list for `Cn1c(=O)c2nsnc2n(C)c1=O`?
T/C (dose: 50.0 mg/kg/injection, schedule: Q04DX002 (ip), vehicle: Klucel (hydroxypropylcellulose) (HPC)): 110 % of control; T/C (dose: 100.0 mg/kg/injection, schedule: Q04DX002 (ip), vehicle: Klucel (hydroxypropylcellulose) (HPC)): 100 % of control and 110 % of control; T/C (dose: 200.0 mg/kg/injection, schedule: Q04DX002 (ip), vehicle: Klucel (hydroxypropylcellulose) (HPC)): 107 % of control

For `O=NC1C(=O)NC(=S)NC1=O`, which T/C (dose: 12.5 mg/kg/injection, schedule: Q04DX002 (ip), vehicle: saline with Tween-80) is on record?
Its T/C is 100 % of control.

`CCOc1c(N=Nc2ccc(C)cc2)c(C)nn1C(=S)S` was tested. Which T/C [2] did it give?
The T/C was 96 % of control.

And the T/C [3]?
Its T/C is 105 % of control.

And the T/C [4]?
The T/C was 97 % of control.

Which results are given for `COc1cccc(/C=C/C(C)=N/NC(N)=S)c1`?
T/C [5]: 107 % of control; T/C [6]: 107 % of control; T/C [7]: 111 % of control; T/C [8]: 118 % of control; T/C [9]: 101 % of control

What does the source list for `Cc1cccc(C(=O)N2C(=O)Cc3ccccc32)c1`?
T/C (dose: 100.0 mg/kg/injection, schedule: Q01DX001 (ip), vehicle: Klucel (hydroxypropylcellulose) (HPC)): 99 % of control; T/C (dose: 200.0 mg/kg/injection, schedule: Q01DX001 (ip), vehicle: Klucel (hydroxypropylcellulose) (HPC)): 94 % of control

With `O=C(N=C(Oc1ccccc1)Oc1ccccc1)N=C(Oc1ccccc1)Oc1ccccc1` as the compound, how does the T/C [10] read?
Its T/C is 94 % of control.

What about the T/C [11] of the same compound?
The T/C was 88 % of control.

What about the T/C [12] of the same compound?
The T/C was 91 % of control.

Which results are given for `CCc1c(C(=O)OC)c(C(=O)OC)c(-c2ccccc2)n1CCn1c(CC)c(C(=O)OC)c(C(=O)OC)c1-c1ccccc1`?
T/C [2]: 96 % of control; T/C [3]: 91 % of control; T/C [4]: 93 % of control

With `CCC(C)C(NC(=O)C(Cl)Cl)C(=O)O` (stereo unspecified) as the compound, how does the T/C [10] read?
Its T/C is 96 % of control.

What about the T/C [11] of the same compound?
Its T/C is 96 % of control.

And the T/C [12]?
The T/C was 99 % of control.

Which results are given for `COc1ccc(S(=O)(=O)N/N=C/c2cc([N+](=O)[O-])ccc2O)cc1`?
T/C [8]: 101 % of control; T/C [9]: 107 % of control; T/C [13]: 119 % of control

With `CC(C)CC#N` as the compound, how does the T/C [1] read?
The T/C was 90 % of control.

What about the T/C (dose: 50.0 mg/kg/injection, schedule: Q01DX009 (ip), vehicle: saline) of the same compound?
The T/C was 100 % of control.

What about the T/C (dose: 100.0 mg/kg/injection, schedule: Q01DX009 (ip), vehicle: saline) of the same compound?
The T/C was 100 % of control.

For `CN(C(=S)NNC(=O)C1CCC(=O)N1)c1ccccc1` (stereo unspecified), which T/C (dose: 60.0 mg/kg/injection, schedule: Q01DX005 (ip), vehicle: saline with Tween-80) is on record?
The T/C was 99 % of control.

And the T/C (dose: 120.0 mg/kg/injection, schedule: Q01DX005 (ip), vehicle: saline with Tween-80)?
Its T/C is 98 % of control.

What about the T/C (dose: 240.0 mg/kg/injection, schedule: Q01DX005 (ip), vehicle: saline with Tween-80) of the same compound?
Its T/C is 103 % of control.

For `COc1cc(OC2OC(COC3OC(CO)C(O)C(O)C3O)C(O)C(O)C2O)c2c(c1)C(=O)c1cc(C)cc(O)c1C2=O` (stereo unspecified), which T/C (dose: 25.0 mg/kg/injection, schedule: Q01DX005 (ip), vehicle: water) is on record?
The T/C was 100 % of control.

What about the T/C (dose: 50.0 mg/kg/injection, schedule: Q01DX005 (ip), vehicle: water) of the same compound?
Its T/C is 98 % of control.

What about the T/C (dose: 100.0 mg/kg/injection, schedule: Q01DX005 (ip), vehicle: water) of the same compound?
The T/C was 98 % of control.

And the T/C (dose: 200.0 mg/kg/injection, schedule: Q01DX005 (ip), vehicle: water)?
The T/C was 96 % of control.

`CCCCc1ccc(-c2nn[nH]n2)nc1` was tested. Which T/C (dose: 25.0 mg/kg/injection, schedule: Q04DX002 (ip), vehicle: saline with Tween-80) did it give?
Its T/C is 101 % of control.

What about the T/C (dose: 50.0 mg/kg/injection, schedule: Q04DX002 (ip), vehicle: saline with Tween-80) of the same compound?
The T/C was 100 % of control and 102 % of control.

And the T/C (dose: 100.0 mg/kg/injection, schedule: Q04DX002 (ip), vehicle: saline with Tween-80)?
The T/C was 100 % of control and 102 % of control and 104 % of control.

What about the T/C (dose: 200.0 mg/kg/injection, schedule: Q04DX002 (ip), vehicle: saline with Tween-80) of the same compound?
Its T/C is 105 % of control and 123 % of control and 95 % of control.

With `CCOC(=O)c1cc[nH]c1CC(=O)OC` as the compound, how does the T/C (dose: 100.0 mg/kg/injection, schedule: Q01DX001 (ip), vehicle: saline with Tween-80) read?
The T/C was 99 % of control.

What about the T/C (dose: 200.0 mg/kg/injection, schedule: Q01DX001 (ip), vehicle: saline with Tween-80) of the same compound?
Its T/C is 96 % of control.

What about the T/C (dose: 400.0 mg/kg/injection, schedule: Q01DX001 (ip), vehicle: saline with Tween-80) of the same compound?
The T/C was 100 % of control.

How did the T/C (dose: 100.0 mg/kg/injection, schedule: Q04DX003 (ip), vehicle: Klucel (hydroxypropylcellulose) (HPC)) turn out when `CC(O)c1cccc(C(C)(C)O)c1Sc1c(C(C)(C)O)cccc1C(C)(C)O` (stereo unspecified) was run?
The T/C was 99 % of control.

And the T/C (dose: 200.0 mg/kg/injection, schedule: Q04DX003 (ip), vehicle: Klucel (hydroxypropylcellulose) (HPC))?
Its T/C is 98 % of control.

What about the T/C (dose: 400.0 mg/kg/injection, schedule: Q04DX003 (ip), vehicle: Klucel (hydroxypropylcellulose) (HPC)) of the same compound?
Its T/C is 97 % of control.

With `CC1=CC(C)=C(C#N)C2=S=C(c3ccccc3)C(=O)N12` as the compound, how does the T/C [5] read?
Its T/C is 97 % of control.

What about the T/C [6] of the same compound?
Its T/C is 94 % of control.

What about the T/C [7] of the same compound?
The T/C was 94 % of control.

What about the T/C [9] of the same compound?
The T/C was 88 % of control.

And the T/C [13]?
Its T/C is 88 % of control.

What does the source list for `Cc1c([O-])[n+]2cccc3ccn(c1=O)c32`?
T/C [2]: 97 % of control; T/C [3]: 100 % of control; T/C [4]: 94 % of control

For `Cn1cnc([N+](=O)[O-])c1[Se]c1nc(N)nc2nc[nH]c12`, which T/C (dose: 3.12 mg/kg/injection, schedule: Q01DX009 (ip), vehicle: dextrose) is on record?
The T/C was 117 % of control.

What about the T/C (dose: 3.12 mg/kg/injection, schedule: Q01DX009 (ip), vehicle: water) of the same compound?
Its T/C is 104 % of control.

And the T/C (dose: 6.25 mg/kg/injection, schedule: Q01DX009 (ip), vehicle: dextrose)?
The T/C was 112 % of control.

And the T/C (dose: 6.25 mg/kg/injection, schedule: Q01DX009 (ip), vehicle: water)?
Its T/C is 116 % of control.

And the T/C (dose: 25.0 mg/kg/injection, schedule: Q01DX009 (ip), vehicle: dextrose)?
The T/C was 161 % of control.

What about the T/C (dose: 25.0 mg/kg/injection, schedule: Q01DX009 (ip), vehicle: water) of the same compound?
Its T/C is 106 % of control.

And the T/C (dose: 50.0 mg/kg/injection, schedule: Q01DX009 (ip), vehicle: dextrose)?
The T/C was 123 % of control.

What about the T/C (dose: 50.0 mg/kg/injection, schedule: Q01DX009 (ip), vehicle: water) of the same compound?
Its T/C is 116 % of control.
